Earlier results in US12297168B2, “Compounds useful for treating liver diseases” (ABIONYX PHARMA SA, priority 2019, dated 2025).

System: NASH resolution without worsening of fibrosis
Details: Phase 3 trial, adults with NASH and fibrosis (interim analysis, RESOLVE-IT)

Compound: CSc1ccc(C(=O)/C=C/c2cc(C)c(OC(C)(C)C(=O)O)c(C)c2)cc1 [elafibranor]
- effect on the primary endpoint of NASH resolution without worsening of fibrosis: did not demonstrate a statistically significant effect
